Values of other authors, collected in publication PMC9042886 (RSC Advances, 2021).

Experiments:
HDAC6 = conditions: read-out: IC50 for HDAC6
HDAC8 = conditions: read-out: IC50 for HDAC8

- IC50 (HDAC6): 306 ± 69 nM
- IC50 (HDAC8): 3100 ± 1650 nM
SMILES: Oc1ccc[nH]c1=S [3-HPT, 3-hydroxypyridin-2-thione]
